According to ChEMBL document CHEMBL5247643, “Discovery and Characterization of BAY-805, a Potent and Selective Inhibitor of Ubiquitin-Specific Protease USP21” (J Med Chem, 2023):
Calls of active or inactive are those of the source. The calls are words filed in the database; no cut-off is given here.

What was measured:
[1] = biological target: T1, Ubiquitin carboxyl-terminal hydrolase 30 (Homo sapiens) (UniProt Q70CQ3); assay: Inhibition of human USP30 using ubiquitin rhodamine 110 as substrate at 10 to 50 uM by fluorometric assay; settings: dose 10-50 µM
T1 sequence (whole entry): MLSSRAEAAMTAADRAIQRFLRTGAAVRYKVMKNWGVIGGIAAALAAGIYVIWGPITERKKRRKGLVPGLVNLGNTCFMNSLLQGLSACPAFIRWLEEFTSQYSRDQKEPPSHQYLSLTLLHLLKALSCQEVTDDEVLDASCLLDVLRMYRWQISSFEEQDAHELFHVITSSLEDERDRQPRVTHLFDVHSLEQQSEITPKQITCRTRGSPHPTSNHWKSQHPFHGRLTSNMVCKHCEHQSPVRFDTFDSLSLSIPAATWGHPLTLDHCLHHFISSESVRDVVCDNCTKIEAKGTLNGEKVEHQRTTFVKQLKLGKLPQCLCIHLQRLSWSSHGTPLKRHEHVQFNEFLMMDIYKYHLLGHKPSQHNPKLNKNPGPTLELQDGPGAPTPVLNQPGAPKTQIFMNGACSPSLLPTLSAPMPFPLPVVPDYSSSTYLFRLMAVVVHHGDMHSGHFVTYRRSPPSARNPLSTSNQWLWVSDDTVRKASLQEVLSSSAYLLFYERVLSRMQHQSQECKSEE

[2] = biological target: T2, Ubiquitin carboxyl-terminal hydrolase 2 (Homo sapiens) (UniProt O75604); assay: Inhibition of human USP2 using ubiquitin rhodamine 110 as substrate at 10 to 50 uM by fluorometric assay; settings: dose 10-50 µM
T2 sequence (whole entry): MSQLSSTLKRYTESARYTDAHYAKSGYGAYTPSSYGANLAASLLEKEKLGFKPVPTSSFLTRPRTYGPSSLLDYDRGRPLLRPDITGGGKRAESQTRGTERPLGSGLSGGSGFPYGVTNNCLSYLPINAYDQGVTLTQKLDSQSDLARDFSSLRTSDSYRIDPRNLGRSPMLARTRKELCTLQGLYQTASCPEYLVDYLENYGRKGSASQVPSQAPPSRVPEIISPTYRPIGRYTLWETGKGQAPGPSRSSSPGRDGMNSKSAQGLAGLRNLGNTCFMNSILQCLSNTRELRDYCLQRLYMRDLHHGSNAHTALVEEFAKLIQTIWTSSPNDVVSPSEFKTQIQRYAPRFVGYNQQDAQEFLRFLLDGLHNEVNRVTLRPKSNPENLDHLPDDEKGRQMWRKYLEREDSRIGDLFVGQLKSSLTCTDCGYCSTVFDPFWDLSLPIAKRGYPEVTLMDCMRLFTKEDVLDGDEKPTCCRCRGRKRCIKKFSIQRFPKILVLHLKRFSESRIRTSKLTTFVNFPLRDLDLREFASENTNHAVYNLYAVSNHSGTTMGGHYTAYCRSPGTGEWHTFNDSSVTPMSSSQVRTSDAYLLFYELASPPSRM

MOLM-13 = assay: Antiproliferative activity against human MOLM-13 cells assessed as reduction in cell viability up to 30 uM incubated for 72 hrs by CellTiter-Glo luminescent assay; type: functional, cell-based
[3] = biological target: T3, Ubiquitin carboxyl-terminal hydrolase 21 (Homo sapiens) (UniProt Q9UK80); assay: Inhibition of human USP21 (209 to 563 residues) expressed in Escherichia coli BL21 (DE3) using ubiquitin rhodamine 110 as substrate assessed as remaining enzyme activity at 10 to 50 uM by fluorometric assay; settings: dose 10-50 µM
T3 sequence (whole entry): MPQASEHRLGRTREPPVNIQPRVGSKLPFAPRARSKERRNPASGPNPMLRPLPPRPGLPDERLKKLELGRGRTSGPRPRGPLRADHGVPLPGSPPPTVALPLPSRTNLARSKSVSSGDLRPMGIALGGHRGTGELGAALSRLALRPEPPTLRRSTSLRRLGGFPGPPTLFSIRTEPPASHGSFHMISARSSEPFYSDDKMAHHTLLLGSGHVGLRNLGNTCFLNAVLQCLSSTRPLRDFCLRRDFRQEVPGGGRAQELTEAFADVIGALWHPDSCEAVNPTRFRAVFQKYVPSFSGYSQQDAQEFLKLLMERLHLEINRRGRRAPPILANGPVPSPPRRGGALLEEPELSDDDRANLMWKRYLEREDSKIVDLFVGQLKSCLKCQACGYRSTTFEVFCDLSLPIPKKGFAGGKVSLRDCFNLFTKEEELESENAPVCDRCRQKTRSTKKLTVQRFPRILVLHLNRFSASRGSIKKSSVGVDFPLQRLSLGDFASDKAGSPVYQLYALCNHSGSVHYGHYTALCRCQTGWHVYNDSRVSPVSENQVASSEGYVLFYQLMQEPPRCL

[4] = biological target: T4, Ubiquitin carboxyl-terminal hydrolase 15 (Homo sapiens) (UniProt Q9Y4E8); assay: Inhibition of human USP15 (1 to 952 residues) expressed in Sf9 cells using ubiquitin rhodamine 110 as substrate assessed as remaining enzyme activity at 10 to 50 uM by fluorometric assay; settings: dose 10-50 µM
T4 sequence (whole entry): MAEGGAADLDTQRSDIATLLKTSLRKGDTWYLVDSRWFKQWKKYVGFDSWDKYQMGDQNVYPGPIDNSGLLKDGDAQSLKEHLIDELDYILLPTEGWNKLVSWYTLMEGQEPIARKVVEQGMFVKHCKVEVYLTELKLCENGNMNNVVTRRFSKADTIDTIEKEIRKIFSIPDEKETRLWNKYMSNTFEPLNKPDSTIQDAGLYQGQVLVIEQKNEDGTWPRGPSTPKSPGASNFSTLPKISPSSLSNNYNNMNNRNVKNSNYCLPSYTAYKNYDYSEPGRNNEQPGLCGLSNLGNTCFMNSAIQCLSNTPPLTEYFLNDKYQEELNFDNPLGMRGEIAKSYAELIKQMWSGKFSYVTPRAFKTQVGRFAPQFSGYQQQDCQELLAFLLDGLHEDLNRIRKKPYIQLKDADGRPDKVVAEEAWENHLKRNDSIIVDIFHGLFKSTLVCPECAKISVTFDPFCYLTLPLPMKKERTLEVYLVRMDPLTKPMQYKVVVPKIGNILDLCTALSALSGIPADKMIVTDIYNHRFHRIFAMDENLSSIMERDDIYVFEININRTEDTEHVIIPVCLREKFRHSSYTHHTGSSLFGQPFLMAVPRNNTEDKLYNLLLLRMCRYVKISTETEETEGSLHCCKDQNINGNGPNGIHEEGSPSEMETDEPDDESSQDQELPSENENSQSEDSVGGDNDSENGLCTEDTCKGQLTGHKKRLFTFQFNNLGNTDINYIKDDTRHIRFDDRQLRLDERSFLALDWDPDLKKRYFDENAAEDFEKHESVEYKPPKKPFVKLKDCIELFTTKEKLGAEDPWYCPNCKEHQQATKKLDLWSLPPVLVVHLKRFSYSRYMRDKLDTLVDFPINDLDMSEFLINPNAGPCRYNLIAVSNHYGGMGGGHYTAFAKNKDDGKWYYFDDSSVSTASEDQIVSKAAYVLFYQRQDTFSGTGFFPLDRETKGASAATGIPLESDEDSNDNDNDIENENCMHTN

[5] = biological target: T2, Ubiquitin carboxyl-terminal hydrolase 2 (Homo sapiens); assay: Inhibition of human USP2 (251 to 605 residues) expressed in Escherichia coli BL21 (DE3) using ubiquitin rhodamine 110 as substrate assessed as remaining enzyme activity at 10 to 50 uM by fluorometric assay; settings: dose 10-50 µM

Structure (SMILES)	inhibition [1]	inhibition [2]	Activity (MOLM-13)	Activity [3]	Activity [4]	Activity [5]
CC(C)C[C@H](NC(=O)C1(C(F)(F)F)CCCCC1)C(=O)Nc1nnc(Cc2ccc(C#N)cc2)s1	inactive	inactive	inactive	–	–	–
CC(NC(=O)C1CCCC1)C(=O)Nc1nnc(Cc2ccc([N+](=O)[O-])cc2)s1 (racemic)	–	–	–	< 50%	< 50%	< 50%
